# Laboratory results as given in patent US8883500B2, “Method of preparing adenosine-resistant anti-tumor T lymphocytes for adoptive immunotherapy” (Northeastern University, priority 2008, dated 2014).
# Where “and” joins values, the source holds several entries; their conditions need not be identical. Identical values can stand only once.
# What was measured:
# CTL = experiment: IFN-γ production from CTL restimulated by immobilized anti-CD3 and anti-CD28 mAbs (ELISA); format: cell-based, mice; design: IFN-γ levels (%) of corresponding CTL without CGS/NECA / IFN-γ levels (%), None (reference = 100): unit of the concentration uncertain; details: for IFN-γ levels (%) of corresponding CTL without CGS/NECA: anti-CD3/anti-CD28 24 h in presence of the agonist (10 (unit uncertain)); for IFN-γ production: control CTL restimulated with anti-CD3 mAb, agonist 10 μM; for IFN-γ levels: restimulation without agonist (None); for IFN-γ levels (%), None (reference = 100): no agonist at restimulation
# Experimental: CTL (2×10^5 cells) were washed twice with media and restimulated by plate-bound anti-CD3 and anti-CD28 monoclonal antibodies (mAb) (BD Biosciences, San Diego, Calif.). Anti-CD3 mAb (2 μg ml^−1) and anti-CD28 mAb (1 μg ml^−1) diluted in PBS were immobilized in a flat-bottom 96-well plastic culture plate for 1 h at 37° C. before use. In order to examine anti-tumor cellular response, CTL (2×10^5 cells) were also cultured with mitomycin C-treated P815 mastocytoma (2.5×10^5 cells). […]. Culture supernatant after 24-48 h was assayed for IFN-γ levels by ELISA.
# CD8+ T cells = experiment: Flowcytometric analysis (CD8 proportion, intracellular IFN-γ staining); format: cell-based, mice; details: for reduction of IFN-γ producers: control CTL, agonist 10 μM
# Experimental: Cells recovered from mixed lymphocyte culture were labeled with phycoerythrin-conjugated anti-CD8, allophycocyanin-conjugated anti-CD4 and fluorescein-conjugated anti-CD69 mAb, and were analyzed by FACSCalibur (BD Biosciences). Cytokine production from CTL was analyzed by intracellular staining as described (Nishimura et al., 1999). After the stimulation with immobilized anti-CD3 and anti-CD28 mAb for 24 h, cells were further incubated in the presence of brefeldin A (10 μg ml^−1) for 2 h. Cells were fixed with 4% parafolmaldehyde-PBS for 15 min, permeabilized with permeabilizing buffer (50 mM NaCl, 5 mM EDTA, 0.02% NaN3, 0.5% Triton X-100, 10 mM Tris-HCl, pH 7.5) for 15 min, and stained with fluorescein-labeled anti-IFN-γ mAb. IFN-γ-producing CD8^+ cells were identified by cell surface staining using phycoerythrin-conjugated anti-CD8 mAb. All antibodies were obtained from BD Biosciences.
# [1] = system: A2A/A2B adenosine receptor; experiment: cAMP assay in CTL; format: cell-based, mice; details: control CTL; cAMP inducer 10 μM (FIG. 6 legend), 15 min
# Experimental: Stimulation of cAMP production and measurement of cAMP levels were performed as described previously (Apasov et al., 2000). […]; from Tocris, Ellisville, Mo.), or forskolin (adenylate cyclase activator; from Sigma). […]
# [2] = system: mixed lymphocyte culture of C57BL/6 and DBA/2 spleen cells (CTL); experiment: IFN-γ levels in mixed lymphocyte culture supernatant (ELISA); format: cell-based, mice; details: for IFN-γ levels in the culture supernatant, decreased to: primary mixed lymphocyte culture 5 days
# Experimental: (§1) Antigen-specific cytotoxic T cells were induced by allogenic mixed lymphocyte culture using spleen cells from C57BL/6 (H-2^b) and DBA/2 (H-2^d) mice. Spleen cells from DBA/2 mice were pretreated with 50 μg ml^−1 mitomycin C (Sigma; St. Louis, Mo.) for 30 min at 37° C. After washing three times by centrifugation, 2×10^6 DBA/2 spleen cells (stimulator) were mixed with 6×10^6 C57BL/6 spleen cells (responder) in 2 ml of RPMI1640 medium containing 10% fetal calf serum. The cells were cultured for 5 days in a 12 well plastic plate. In some experiments, CTL (2×10^6 cells) were restimulated on day 5 using mitomycin C-treated DBA/2 spleen cells (4×10^6 cells). The restimulated cells were cultured for additional 2 days, and were analyzed on day 7.
# (§2) Culture supernatant was collected 5 days after the set up of mixed lymphocyte culture or 2 days after restimulation and was stored at 4° C. for subsequent measurement of interferon-γ (IFN-γ) levels. IFN-γ was quantified by ELISA (R&D Systems; Minneapolis, Minn.) according to manufacturer's instruction. Cells were incubated for additional 4 h in the presence of 1 μCi [3H] thymidine (American Radiolabeled Chemicals, St. Louis, Mo.) and radioactivity of incorporated thymidine was counted.
# [3] = system: mixed lymphocyte culture of C57BL/6 and DBA/2 spleen cells (CTL); experiment: Mixed lymphocyte culture: cell proliferation ([3H] thymidine incorporation) and cell number; format: cell-based, mice; details: for cell number, % of control: primary mixed lymphocyte culture 5 days
# Experimental: as §1, §2
# P815 mastocytoma = experiment: Cytotoxicity assay, 51Cr release
# Experimental: Cytotoxicity of T cells against P815 mastocytoma (H-2^d) was determined by ^51Cr release assay. Initially, P815 cells (2×10^6) were incubated with 100 μCi [^51Cr] sodium chromate (Perkin Elmer, Boston, Mass.) for 1 h at 37° C. The cells were washed for three times by centrifugation to remove excess radioactivity. The labeled P815 cells (1×10^4 cells) were mixed with the effector cells recovered from mixed lymphocyte culture in a volume of 150 μl. […] Sedimentation of the cells in a v-bottom 96 well plate by brief centrifugation was followed by incubation at 37° C. After 4 h, ^51Cr release in the supernatant from target cells was counted using γ-radiation counter. Spontaneous ^51Cr release was measured by culturing target cells alone. Maximum ^51Cr release was measured by adding 1N hydrochloric acid to the same number of target cells. Cytotoxicity was calculated as percentage cell lysis when spontaneous and maximum ^51Cr release were set to 0% and 100%, respectively.
# [4] = CTL developed with NECA (0.1 (unit uncertain))
# [5] = CTL developed with NECA (1 (unit uncertain))
# [6] = CTL developed with NECA (10 (unit uncertain))
# [7] = NECA (0.1-1 μM) added only for 2 days after restimulation of 5-day CTL
structure (smiles),measurement,setting,value
CCNC(=O)[C@H]1O[C@@H](n2cnc3c(N)nc(NCCc4ccc(CCC(=O)O)cc4)nc32)[C@H](O)[C@@H]1O [CGS],IFN-γ levels (%) of corresponding CTL without CGS/NECA,CTL; [4],57 ± 8 %
same,IFN-γ levels (%) of corresponding CTL without CGS/NECA,CTL; [5],67 ± 10 %
same,IFN-γ levels (%) of corresponding CTL without CGS/NECA,CTL; [6],80 ± 13 %
same,IFN-γ levels (%) of corresponding CTL without CGS/NECA,CTL; Control CTL,44% and 44 ± 11%
same,IFN-γ production,CTL,strongly inhibited
same,IFN-γ producing capacity retained,CTL; negatively selected NECA-CTL tested for inhibition by CGS,up to 80%
same,reduction of IFN-γ producers,CD8+ T cells,70%
same,increase of cAMP levels,[1],7.4 fold
"CCNC(=O)[C@H]1O[C@@H](n2cnc3c(N)ncnc32)[C@H](O)[C@@H]1O [NECA, 5′-N-ethylcarboxamidoadenosine]",IFN-γ levels in the culture supernatant after restimulation,[2]; [7],inhibit
same,"IFN-γ levels in the culture supernatant, decreased to",[2]; 10^−5 M NECA,18%
same,"IFN-γ levels in the culture supernatant, decreased to",[2]; 10^−7 M NECA,44%
same,IFN-γ levels,CTL; CTL developed with NECA 0.1 μM (table; 0.1 μM),3722 pg/mL
same,IFN-γ levels,CTL; CTL developed with NECA 1 mM (table; 1 μM),2327 pg/mL
same,IFN-γ levels,CTL; CTL developed with NECA 10 mM (table; 10 μM),1089 pg/mL
same,IFN-γ levels (%) of corresponding CTL without CGS/NECA,CTL; [4],44 ± 12 %
same,"IFN-γ levels (%), None (reference = 100)",CTL; [4],100 ± 23%
same,IFN-γ levels (%) of corresponding CTL without CGS/NECA,CTL; [5],56 ± 8 %
same,"IFN-γ levels (%), None (reference = 100)",CTL; [5],100 ± 19%
same,IFN-γ levels (%) of corresponding CTL without CGS/NECA,CTL; [6],60 ± 8 %
same,"IFN-γ levels (%), None (reference = 100)",CTL; [6],100 ± 5%
same,IFN-γ levels (%) of corresponding CTL without CGS/NECA,CTL; Control CTL,28 ± 7%
same,IFN-γ production,CTL,strongly inhibited
same,proliferation of CTL after restimulation,[3]; [7],inhibit proliferation of CTL
same,"cell number, % of control",[3]; NECA 0.1 μM,78%
same,"cell number, % of control",[3]; NECA 1 μM,72%
same,"cell number, % of control",[3]; NECA 10 μM,68%
same,"Cell proliferation, [3H] thymidine incorporation, decreased to","[3]; primary mixed lymphocyte culture, 5 days in the presence of NECA (0.1-10 μM)",30-40%
same,proportion of CD8+ T cells in the expanded cells,CD8+ T cells; NECA added only for 2 days after restimulation,unchanged from control CTL
same,reduction of IFN-γ producers,CD8+ T cells,70%
same,increase of cAMP levels,[1],11.1 fold
same,"Cytotoxicity, % of control","P815 mastocytoma; CTL from primary culture with 10^−5 M NECA, effector-target ratio 5:1",33%
same,cytotoxicity against P815,"P815 mastocytoma; NECA added only for 2 days after restimulation, effector-target ratio 5:1, 2.5:1, 1.25:1",not impaired
